Results on 1 compound are retold here after US20170095440A1, “METHOD OF TREATING CANINE PANCREATITIS” (CK9, LLC, priority 2014, published 2017).

For data set [1], the system named is dogs with suspected chronic pancreatitis. Kind of data set: Serum C-reactive protein before and after treatment, clinical trial. The format is in vivo, dog. Particulars: for Change in serum C-reactive protein, pre- vs post-treatment: methanesulfonate. As to the method: Treatment effects on overall health status, quality of life, and clinical signs were also evaluated with serum biochemistry profiles, complete blood counts, and owner questionnaires.
Dogs were identified by screening current submissions to the Gastrointestinal Laboratory at Texas A&M indicative of pancreatitis (canine pancreas-specific lipase≧400 μg/L) using an immunoassay for measurement of canine pancreas-specific lipase in canine serum known as the spec CPL® Test (IDEXX, Laboratories). A number of potential study participants were directly referred to the investigator by veterinarians, based on positive pet-side SNAP cPL® Test (IDEXX Laboratories, Westbrook, Me., USA) results and concomitant clinical signs. After ascertaining individual suitability of a patient with the referring veterinarian, serum canine pancreas-specific lipase concentration, serum biochemistry profile, and complete blood count were evaluated or re-evaluated 12±4 days after collection of the initial sample submission to the Gastrointestinal Laboratory. Based on the assumption that consecutive canine pancreas-specific lipase elevations indicate chronic pancreatitis, enrollment was offered for patients with canine pancreas-specific lipase concentrations≧400 μg/L, serum triglyceride concentrations below 500 mg/dL, and no indication of hepatic, renal, or other organ disease. […] Owner consent was required prior to phlebotomy and for enrollment into the trial.
Twelve enrolled dogs received camostat capsules at a dosage of 4 mg/kg q 8 hrs, for a total dose of 12 mg/kg q 24 hrs. […] Individual patients were medicated for between 21 to 31 days.
Blood samples were collected before beginning the treatment and after completion of the treatment period. Complete blood count (red blood cell count, hematocrit, mean corpuscular volume, mean corpuscular hemoglobin, mean corpuscular hemoglobin concentration, differential and absolute white blood cell count, red blood cell count, hemoglobin, platelet estimate, red blood cell morphology, white blood cell morphology, and hemoparasites) was evaluated at the Texas Veterinary Medical Diagnostic Laboratory (TVMDL). A serum chemistry profile with electrolytes (glucose, blood urea nitrogen, creatinine, calcium, phosphorus, albumin, total protein, total bilirubin, alkaline phosphatase, alanine amino transferase, aspartate amino transferase, γ-glutamyl transferase, cholesterol, triglycerides, globuline, sodium, potassium, and chloride) was performed on a SIRRUS analyzer (Stanbio, Boerne, Tex., USA). […]
Pre-treatment and post-treatment results for all diagnostic tests were statistically analyzed using Prism 6 (GraphPad Software, La Jolla, Calif., USA). […]

Data set [2] relates to Han Wistar rats. The data set is described as follows: Rising-dose tolerance study, single oral gavage. The format is in vivo, rat. As to the method: The following parameters and end points were evaluated in the rising-dose phase of this study: clinical signs, body weights, body weight changes, food consumption, and gross necropsy findings.
A total of 18 male and 24 female Han Wistar rats were received from Charles River Laboratories, Raleigh, N.C. The animals were examined and weighed on the day following receipt. The rising-dose phase animals were 8 weeks old and weighed between 176 g and 255 g at initiation of dosing and the multiple-dose phase animals were 8 weeks old and weighed between 172 g and 259 g at initiation of dosing.
For the rising-dose study, the test article was administered to the appropriate animals as a single dose by oral gavage. At least a 3-day observation period was maintained before proceeding to the next dose level/group. The dose volume for each animal was based on the most recent body weight measurement. The doses were given using a syringe with attached gavage cannula. The first day of dosing for each group was designated as Study Day 1.
The animals were removed from the cage and a detailed clinical observation was performed on the day of randomization and Days 1 to 8; 1 to 3 hours postdose on the day of dosing. Each animal was weighed on the day of randomization and Days 1 to 8. Food consumption was quantitatively measured for each animal weekly, starting Day −3, throughout the study.
Rising-dose study animals were subjected to a complete necropsy examination, which included evaluation of the carcass and musculoskeletal system; all external surfaces and orifices; cranial cavity and external surfaces of the brain; and thoracic, abdominal, and pelvic cavities with their associated organs and tissues. Necropsy examinations were conducted under the supervision of a board-certified veterinary pathologist.

Where [3] appears, read: 100, 550 or 1300 mg/kg single dose.

The structures appear in SMILES notation. “Also recorded” adds a separate entry of the source.

Take `CN(C)C(=O)COC(=O)Cc1ccc(OC(=O)c2ccc(NC(=N)N)cc2)cc1` [Camostat Mesilate, N,N-dimethylcarbamoylmethyl-4-(4-guanidinobenzoyloxy)phenylacetate methanesulfonate]: in data set [1] (4 mg/kg q 8 hrs, n=12), the “Change in serum C-reactive protein, pre- vs post-treatment” value is reported as “no significant difference; also recorded: did not change significantly”. Further, the “Serum C-reactive protein concentration post-treatment (median)” value in data set [1] (4 mg/kg q 8 hrs, n=12, pre-treatment median 0.8, post range 0.0-9.4, p=0.1543) was found to be 0.6 mg/L. Besides, in data set [1] (all treated dogs combined, n=29, pre-treatment median 0.2, p=0.0595), the “Serum C-reactive protein concentration post-treatment (median)” value was 0.1 mg/L. Also, in data set [1] (all treated dogs combined, n=29, trend towards a decrease), the “Change in serum C-reactive protein, pre- vs post-treatment” value is given as “no statistically significant difference; also recorded: did not lead to any significant changes”. Moreover, the “Clinical observation not considered test article related” value in data set [2] (550 mg/kg single dose) is “hair loss was observed in 1 animal”. For the same compound, the “Necropsy observation not considered test article related” value in data set [2] (1300 mg/kg single dose, male) is “Dark discoloration of the thymus was observed in one 1300 mg/kg male”. For the same compound, the “Clinical observation not considered a direct test article effect” value in data set [2] (1300 mg/kg single dose, possible aspiration during dosing) was “piloerection and abnormal breathing sounds were observed in 1 animal on Day 2”. Moreover, in data set [2] (setting [3]), the “Body weight Days 1 to 8” value was “All animals gained weight”, the Food consumption entry was “no significant changes in food consumption”, the Gross necropsy findings entry is “no significant gross necropsy findings” and the “Test article-related clinical observations” value is reported as “no test article-related clinical observations”. In addition, in data set [2] (single oral gavage 100, 550 or 1300 mg/kg, euthanasia Day 8, methanesulfonate), the Survival entry is “All animals survived to scheduled euthanasia; also recorded: No animals died”.
